Laboratory results: patent US5602106A, “16-membered macrolide derivatives” (priority 1993, dated 1997)
In brackets after ≈: the same amount, converted by molar mass. Like-named read-outs stand apart in the source and are kept apart here.

Assays:
Format in all cases: cell-based
[1] = tested on: clinically important Gram-positive bacteria; test: Antimicrobial activity / growth inhibition
Description: (§1) The effect of the first aspect of the present invention resides in the creation of a novel and useful 16-membered macrolide derivative. Antimicrobial activities of the compounds of the present invention were determined by measuring minimum inhibitory concentration (MIC). Minimum inhibitory concentration was determined by the agar plate dilution method in the following manner.
(§2) Test strains were subjected to seed culture using Sensitivity test broth (STB, Nissui Pharmaceutical) except that the strains belonging to the genus Streptococcus, Branhamella and Haemophilus were cultured on blood agar plate. A 5 μl portion of cell suspension of the test strains having about 10^6 CFU/ml was inoculated into Sensitivity disk agar (SDA, Nissui Pharmaceutical) supplemented with 5% horse blood and incubated at 37° C. for 20 hours. Then, MIC was measured. […] Antimicrobial activities in vitro of the compounds (1) and (2) are shown in Table 1, and those of the compounds (3) and (4) in Table 3.

S. aureus MS15026 = test: MIC, agar plate dilution method; conditions: Staphylococcus aureus, 37° C., 20 hours, SDA with 5% horse blood, read-out: Antimicrobial activity (MIC)
Description: as §1, §2

S. aureus MS15009/pMS99 = test: MIC, agar plate dilution method; conditions: Staphylococcus aureus, MS15009/PMS99, 20 h, read-out: Antimicrobial activity (MIC)
Description: as §1, §2

E. coli NIHJ JC-2 = test: MIC, agar plate dilution method; conditions: Escherichia coli, NIHJJC2, 20 h, 37° C., SDA with 5% horse blood, read-out: Antimicrobial activity (MIC)
Description: as §1, §2

S. epidermidis ATCC14990 = test: MIC, agar plate dilution method; conditions: Staphylococcus epidermidis, ATCC14990, 20 h, read-out: Antimicrobial activity (MIC), 37° C., 20 hours, SDA with 5% horse blood
Description: as §1, §2

B. catarrhalis W-0500 = test: MIC, agar plate dilution method; conditions: Moraxella catarrhalis, W0500, 20 h, read-out: Antimicrobial activity (MIC), 37° C., 20 hours, SDA with 5% horse blood
Description: as §1, §2

S. aureus 209P JC-1 = test: MIC, agar plate dilution method; conditions: Staphylococcus aureus, 209P, 20 h, 37° C., 20 hours, SDA with 5% horse blood; read-out: Antimicrobial activity (MIC)
Description: as §1, §2

S. aureus MS15009/pMS98 = test: MIC, agar plate dilution method; conditions: Staphylococcus aureus, MS15009/PMS98, 20 h, read-out: Antimicrobial activity (MIC), 37° C., 20 hours, SDA with 5% horse blood
Description: as §1, §2

H. influenzae Type b = test: MIC, agar plate dilution method; conditions: Haemophilus influenzae
Description: as §1, §2

K. pneumoniae PCI602 = test: MIC, agar plate dilution method; conditions: Klebsiella pneumoniae, PCI602, 20 h, 37° C., SDA with 5% horse blood, read-out: Antimicrobial activity (MIC)
Description: as §1, §2

S. aureus M126 = test: MIC, agar plate dilution method; conditions: Staphylococcus aureus, 37° C., 20 hours, SDA with 5% horse blood, read-out: Antimicrobial activity (MIC)
Description: as §1, §2

S. pneumoniae Type 1 = test: MIC, agar plate dilution method; conditions: Streptococcus pneumoniae, TYPE1; 37° C., 20 hours, SDA with 5% horse blood; read-out: Antimicrobial activity (MIC)
Description: as §1, §2

E. faecalis W-73 = test: MIC, agar plate dilution method; conditions: Enterococcus faecalis, W73, 20 h, read-out: Antimicrobial activity (MIC)
Description: as §1, §2

S. pneumoniae IP692 = test: MIC, agar plate dilution method; conditions: Streptococcus pneumoniae, IP692, 20 h, 37° C., 20 hours, SDA with 5% horse blood; read-out: Antimicrobial activity (MIC)
Description: as §1, §2

S. pyogenes Cook = test: MIC, agar plate dilution method; conditions: Streptococcus pyogenes; 37° C., 20 hours, SDA with 5% horse blood; read-out: Antimicrobial activity (MIC)
Description: as §1, §2

S. aureus M133 = test: MIC, agar plate dilution method; conditions: Staphylococcus aureus, M133, 20 h, read-out: Antimicrobial activity (MIC), 37° C., 20 hours, SDA with 5% horse blood
Description: as §1, §2

M. luteus ATCC9341 = test: MIC, agar plate dilution method; conditions: Micrococcus luteus, ATCC9341; 37° C., 20 hours, SDA with 5% horse blood; read-out: Antimicrobial activity (MIC)
Description: as §1, §2

H. influenzae 9334 = test: MIC, agar plate dilution method; conditions: Haemophilus influenzae, 9334, 20 h, read-out: Antimicrobial activity (MIC), 37° C., 20 hours, SDA with 5% horse blood
Description: as §1, §2

B. catarrhalis W-0506 = test: MIC, agar plate dilution method; conditions: Moraxella catarrhalis, W0506, 20 h, read-out: Antimicrobial activity (MIC), 37° C., 20 hours, SDA with 5% horse blood
Description: as §1, §2

S. aureus MS15027 = test: MIC, agar plate dilution method; conditions: Staphylococcus aureus, MS15027, 20 h, read-out: Antimicrobial activity (MIC), 37° C., 20 hours, SDA with 5% horse blood
Description: as §1, §2

test strains = test: Antimicrobial activity in vitro, test strains overall; conditions: for antimicrobial activities in comparison with rokitamycin: vs rokitamycin
Description: as §1, §2

B. catarrhalis W-0400 = test: MIC, agar plate dilution method; conditions: Moraxella catarrhalis, W0400, 20 h, read-out: Antimicrobial activity (MIC)
Description: as §1, §2

[2] = 20 h, read-out: Antimicrobial activity (MIC), 37° C., 20 hours, SDA with 5% horse blood

Row | SMILES | antimicrobial activities (in words) [1] | MIC (S. aureus MS15026) [µg/mL] | MIC (S. aureus MS15009/pMS99) [µg/mL] | MIC (E. coli NIHJ JC-2) [µg/mL] | MIC (S. epidermidis ATCC14990) [µg/mL] | MIC (B. catarrhalis W-0500) [µg/mL] | MIC (S. aureus 209P JC-1) [µg/mL] | MIC (S. aureus MS15009/pMS98) [µg/mL] | MIC (H. influenzae Type b; [2]) [µg/mL] | MIC (K. pneumoniae PCI602) [µg/mL] | MIC (S. aureus M126) [µg/mL] | MIC (S. pneumoniae Type 1) [µg/mL] | MIC (E. faecalis W-73) [µg/mL] | MIC (S. pneumoniae IP692) [µg/mL] | MIC (S. pyogenes Cook) [µg/mL] | MIC (S. aureus M133) [µg/mL] | MIC (M. luteus ATCC9341) [µg/mL] | MIC (H. influenzae 9334) [µg/mL] | MIC (B. catarrhalis W-0506) [µg/mL] | MIC (S. aureus MS15027) [µg/mL] | other results
1 | CO[C@@H]1[C@@H](O[C@@H]2O[C@H](C)[C@@H](O[C@H]3C[C@@](C)(OC)[C@@H](OC(=O)CC(C)C)[C@H](C)O3)[C@H](N(C)C)[C@H]2O)[C@@H](CC=O)C[C@@H](C)[C@@H](O)/C=C/C=C/C[C@@H](C)OC(=O)C[C@H]1O [(58), 3"-O-methylleucomycin A1] | markedly strong microbial activities | > 100 | > 100 | > 100 | 0.2 (≈ 0.25 µM) | 0.2 (≈ 0.25 µM) | 0.05 (≈ 0.0625 µM) | 0.2 (≈ 0.25 µM) | 6.25 (≈ 7.81 µM) | > 100 | > 100 | 0.05 (≈ 0.0625 µM) | 0.78 (≈ 0.975 µM) | 0.05 (≈ 0.0625 µM) | 0.05 (≈ 0.0625 µM) | 0.39 (≈ 0.488 µM) | < 0.025 | 0.78 (≈ 0.975 µM) | 0.2 (≈ 0.25 µM) | 0.2 (≈ 0.25 µM) | 
2 | CCCCC(=O)O[C@H]1[C@H](C)O[C@@H](O[C@H]2[C@H](N(C)C)[C@@H](O)[C@H](O[C@H]3[C@@H](CC=O)C[C@@H](C)[C@@H](O)/C=C/C=C/C[C@@H](C)OC(=O)C[C@@H](O)[C@@H]3OC)O[C@@H]2C)C[C@@]1(C)OC [(48), 3"-O-methyl-4"-O-n-valerylleucomycin V] | markedly strong microbial activities | > 100 | > 100 | > 100 | 0.2 (≈ 0.25 µM) | 0.1 (≈ 0.125 µM) | 0.05 (≈ 0.0625 µM) | 0.2 (≈ 0.25 µM) | 6.25 (≈ 7.81 µM) | > 100 | > 100 | < 0.025 | 0.78 (≈ 0.975 µM) | < 0.025 | < 0.025 | 0.2 (≈ 0.25 µM) | < 0.025 | 0.78 (≈ 0.975 µM) | 0.2 (≈ 0.25 µM) | 0.2 (≈ 0.25 µM) | antimicrobial activities compared with compound (58) (test strains; vs compound (58)): slightly superior antimicrobial activities; antimicrobial activities in comparison with rokitamycin (test strains): markedly excellent antimicrobial activities
3 | CCCC(=O)O[C@H]1[C@H](C)O[C@@H](O[C@H]2[C@H](N(C)C)[C@@H](O)[C@H](O[C@H]3[C@@H](CC=O)C[C@@H](C)[C@@H](O)/C=C/C=C/C[C@@H](C)OC(=O)C[C@@H](O)[C@@H]3OC)O[C@@H]2C)C[C@@]1(C)OC [(33), 3"-O-methylleucomycin A5] |  | > 100 | > 100 | > 100 | 0.2 (≈ 0.254 µM) |  | 0.05 (≈ 0.0636 µM) | 0.1 (≈ 0.127 µM) |  | 100 (≈ 127 µM) | > 100 | < 0.025 | 0.78 (≈ 0.992 µM) | < 0.025 | < 0.025 | 0.2 (≈ 0.254 µM) | < 0.025 | 0.2 (≈ 0.254 µM) | 0.2 (≈ 0.254 µM) | 0.2 (≈ 0.254 µM) | antimicrobial activities compared with clarithromycin (test strains; vs clarithromycin): completely comparable to those of clarithromycin; antimicrobial activities in comparison with compound (2) (test strains; vs compound (2)): generally improved antimicrobial activities; antimicrobial activities in comparison with rokitamycin (test strains): markedly excellent antimicrobial activities in vitro; MIC (H. influenzae Type b; 37° C., 20 hours, SDA with 5% horse blood, read-out: Antimicrobial activity (MIC)): 1.56 µg/mL (≈ 1.98 µM); MIC (B. catarrhalis W-0400): 0.1 µg/mL (≈ 0.127 µM)
